What all share (test): DTP human tumour cell line panel, 48 h
The subject of assay [1] is HCT-15.
Assay [2] concerns 786-0.
For assay [3], the system named is HOP-62.
Assay [4] relates to SF-268.
In assay [5] the test system is RPMI-8226.
Assay [6] concerns MDA-MB-231.
In assay [7] the test system is SK-OV-3.
In assay [8] the test system is KM12.
The test system of assay [9] is COLO 205.
Assay [10] has as its system SN12C.
Assay [11] has as its system TK-10.
Assay [12] concerns OVCAR-4.
The test system of assay [13] is HOP-92.
Assay [14] has as its system OVCAR-5.
In assay [15] the test system is NCI-H522.
The test system of assay [16] is U-251.
Assay [17] deals with SK-MEL-2.
Assay [18] relates to CCRF-CEM.
Assay [19] deals with SK-MEL-28.
Assay [20] concerns UO-31.

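Test compounds were applied to cells in 96-well plates for 48 hours at 5 doses. GI50 marks 50% less growth.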 The source made the active and inactive calls. No stated cut-off is given here; in the data, active = GI50 up to about 1.1 µM and inactive = higher.

What is called GI50 is the concentration giving 50% growth inhibition. Take `Cc1ccc(S(=O)(=O)n2c3c(c4ccccc42)CCN2C(=O)C(S(=O)(=O)c4ccccc4)=CCC32)cc1` (stereo not given): the GI50 in [1] was 0.188 µM; in assay [2] it was 0.178 µM (active); in assay [3], 0.24 µM (active); in [4], 0.238 µM (active); in [5], 0.327 µM (active); in [6], 0.186 µM (active). Besides, the GI50 is 1.3 µM (inactive) in assay [7]; 0.194 µM (active) in [8]; 0.236 µM (active) in assay [9]; 0.211 µM (active) in assay [10]; 0.0646 µM (active) in assay [11]; 0.179 µM (active) in [12]. Further, the GI50 in assay [13] is 0.149 µM (active); in [14], 0.23 µM (active); in [15], 0.259 µM (active); in [16], 0.22 µM (active); in assay [17] it was 0.217 µM (active); in assay [18] it was 0.228 µM (active). Moreover, the GI50 was 0.168 µM (active) in [19] and 0.234 µM (active) in assay [20].

For `CC1OC(OC2C(O)COC(OC3C(C)OC(OC4C(OC(=O)[C@]56CCC(C)(C)C[C@@H]5C5=CCC7[C@@]8(C)C[C@H](O)[C@H](OC9OC(CO)C(O)C(OC%10OC(CO)C(O)C(O)C%10O)C9O)[C@@](C)(CO)[C@@H]8CC[C@@]7(C)[C@]5(C)CC6)OCC(O)C4O)C(O)C3O)C2O)C(O)C(O)C1O` (stereo not given in full), the GI50 in assay [1] is 19.7 µM; in assay [2], 16.1 µM (inactive); in assay [3] it was 14.3 µM (inactive); in assay [4], 21.4 µM (inactive); in [5] it was 18.3 µM (inactive); in assay [6], 16.3 µM (inactive). The GI50 in assay [7] was 15.7 µM (inactive); in [8], 18.8 µM (inactive); in assay [9] it was 5.15 µM (inactive); in [10], 10.6 µM (inactive); in [11] it was 18.8 µM (inactive); in assay [12], 14.9 µM (inactive). Moreover, the GI50 in assay [13] was 20.6 µM (inactive); in assay [14], 12.2 µM (inactive); in assay [15], 15.5 µM (inactive); in assay [16] it was 17.5 µM (inactive); in [17] it was 19.8 µM (inactive); in assay [18], 14.7 µM (inactive). Besides, the GI50 in [19] is 8.75 µM (inactive); in assay [20], 4.17 µM (inactive).

Take `O=C1NC(N2CCOCC2)=N/C1=C\c1ccco1`: the 50% growth inhibitory concentration (GI50) in assay [1] is over 100 µM; in assay [2], > 100 µM (inactive); in assay [3], > 100 µM (inactive); in assay [4] it was > 100 µM (inactive); in [5], > 100 µM (inactive); in assay [6], > 100 µM (inactive). In addition, the GI50 in assay [7], in assay [8], in [9], in assay [10], in assay [11] and in assay [12] was > 100 µM (inactive) throughout. The GI50 in [13], in assay [14], in assay [15], in assay [16], in assay [17] and in assay [18] was > 100 µM (inactive) each time. For the same compound, the GI50 in assay [19] and in [20] was > 100 µM (inactive) throughout.

On to `C[C@]12CC[C@H]3[C@@H](CCC4=CC(=O)CC[C@@]43C)[C@@H]1CC[C@@H]2C(=O)Nc1ccc([N+](=O)[O-])c(C(F)(F)F)c1`, for which the GI50 in assay [1] was 12 µM; in [2], 16.6 µM (inactive); in assay [3], 29 µM (inactive); in assay [4] it was 21.4 µM (inactive); in [5], 56.1 µM (inactive); in [6] it was 17.1 µM (inactive). Moreover, the GI50 in assay [7] is 12.7 µM (inactive); in [8], 16 µM (inactive); in [9] it was 18.2 µM (inactive); in assay [10] it was 23.4 µM (inactive); in assay [11], 19 µM (inactive); in assay [12], 15.3 µM (inactive). The GI50 in [13] was 39.8 µM (inactive); in [14] it was > 10 µM (inactive); in assay [15] it was 17.2 µM (inactive); in assay [16], 17.1 µM (inactive); in assay [17], 17.5 µM (inactive); in assay [18], 24.7 µM (inactive). The results for the GI50 in assay [19] and in assay [20] were 20.7 µM (inactive) and 16.6 µM (inactive), respectively.

Consider `Cn1c(=O)cc(NNc2ccccc2)[nH]c1=O`, for which the GI50 is 16.4 µM in assay [1]; 16.2 µM (inactive) in assay [2]; > 100 µM (inactive) in [3]; 44.3 µM (inactive) in [4]; 17.1 µM (inactive) in assay [5]; 18.7 µM (inactive) in [6]. Further, the GI50 is > 100 µM (inactive) in [7]; 26.3 µM (inactive) in [8]; > 100 µM (inactive) in [9]; 61.5 µM (inactive) in [10]; 30.3 µM (inactive) in assay [11]; > 100 µM (inactive) in assay [12]. Besides, the GI50 in assay [13] was 22.1 µM (inactive); in [14], 85.5 µM (inactive); in assay [15], 15.1 µM (inactive); in [16] it was 17.8 µM (inactive); in [17], 36 µM (inactive); in [18], 34.1 µM (inactive). In addition, the GI50 in assay [19] is 28.6 µM (inactive); in assay [20], 83.2 µM (inactive).

Take `C=CCOC(=O)N1c2ccc(O)cc2[C@@]23O[C@@]24[C@@H]1C#C/C=C\C#C[C@]3(O)C(OC)(OC)C[C@@H]4C`: the GI50 in assay [1] was 44.2 µM; in assay [2], 22.2 µM (inactive); in assay [3] it was 34.6 µM (inactive); in assay [4] it was 36.5 µM (inactive); in assay [5], 34.4 µM (inactive); in assay [6] it was 23.6 µM (inactive). The GI50 in assay [7] is 61 µM (inactive); in assay [8] it was 24.9 µM (inactive); in assay [9], 19.1 µM (inactive); in assay [10] it was 23.8 µM (inactive); in assay [11], 29.9 µM (inactive); in assay [12], 0.258 µM (active). In addition, the GI50 in assay [13] was 16.4 µM (inactive); in [14] it was 75.9 µM (inactive); in assay [15], 31.3 µM (inactive); in [16], 33.5 µM (inactive); in [17], 24.2 µM (inactive); in [18] it was 23.6 µM (inactive). Besides, the GI50 was 45.1 µM (inactive) in [19] and 37.2 µM (inactive) in assay [20].

These data come from ChEMBL document CHEMBL1201862, “PubChem BioAssay data set” (2004).
